A word on the IC50: it is the concentration needed to halve the response being measured. Read a high IC50 as weaker potency in that assay. The term viability denotes a read-out of living cells in per cent, often relative to untreated cells.

Read-outs that look alike come from different tables or passages of the source.

The test system of series [1] is HL-60 cells. As to the kind of experiment: MTT viability assay in proliferative HL-60 cells. The settings on record: for IC50: proliferative HL-60 cells, mean ± SD, n = 3; for IC50 / effect on HL-60 cell viability (in words): MTT; for cytotoxic effect (in words): after 24 h; for effect on HL-60 cell viability (in words): doses up to 50 µM, 24, 48 and 72 h. In kind it is cell-based, human. As to the method:
The human acute myeloid leukemia cell line HL-60 (ATCC® CCL-240™) was used to test the Brassica spp. phytochemicals. Maintenance of the cells was performed as previously described. Briefly, cells were grown in RPMI-1640 medium (Biowest) supplemented with 10% fetal bovine serum (FBS; Gibco, Thermo Fisher Scientific, Madrid, Spain) and 1% penicillin/streptomycin (Gibco, Thermo Fisher Scientific, Madrid, Spain), at 37 °C with 5% CO2 and 90% humidity. All in vitro assays were performed after passage number 5 and before passage number 20 with cells growing at an exponential ratio.
The anti-tumor activity of the compounds was evaluated by the MTT (3-(4,5-dimethylthiazol-2-yl)-2,5-diphenyltetrazolium bromide) viability assays as described previously. In brief, HL-60 cells were cultured at a concentration of 10^5 cells/mL (exponential growth rate) in 96-well plates containing 200 μL of cell culture medium and exposed to different doses of the tested compounds (0.5 μM, 1 μM, 5 μM, 10 μM, 25 μM, and 50 μM) for 24, 48, and 72 h. Then, MTT (Thermo Fisher) was added at a final concentration of 483 μM (0.2 mg/mL) and cells were incubated for 1 h at 37 °C and 5% CO2. Afterward, cells were lysed using an acidified isopropanol solubilization solution containing 0.04 M hydrochloric acid and 0.1% NP-40 detergent to release the formazan. Finally, the absorbance was measured at 550 nm using a SPECTROstar Nano (BMG Labtech, Germany) plate reader. The compound cytotoxicity was normalized to the control conditions (untreated with an equivalent dose of vehicle (DMSO) when applicable).
For orientation: Formazan colour is commonly taken as a measure of viable cells.

The subject of series [2] is HL-60 cells. Also noted: method as in PMID 15135302. To be noted: apoptosis induction and cytodifferentiation; cited from earlier work.
Series [3] has as its system NRF2/KEAP1 signaling pathway. As to the kind of experiment: RT-qPCR gene expression in undifferentiated HL-60 cells. Format: cell-based, human. The settings on record: for expression levels of the NRF2-target genes HMOX, NQO1 and GSTA1 (in words): undifferentiated HL-60, RT-qPCR, dose-dependent. The text has this:
Total RNA was extracted from HL-60 cells using the GenElute Mammalian Total RNA Miniprep kit (Sigma) following the manufacturer’s instructions. RNA was eluted in RNAse-free water and checked for concentration and purity using the Nanodrop spectrophotometer system (ND-100 3.3. Nanodrop Technologies, Thermo Scientific, Madrid, Spain). Only samples with a ratio of Abs260/Abs280 between 1.8 and 2.1 were used for gene expression assays. cDNA was generated using a high-capacity RNA-to-cDNA kit (Thermo Fisher Scientific, Madrid, Spain) according to the manufacturer’s protocol. PCR amplification was carried out with PowerUp SYBR Green PCR Master Mix (Applied Biosystems, Waltham, MA, USA) using a Fast 7500 Real-Time instrument (Applied Biosystems, Waltham, MA, USA). The obtained data were analyzed using the 7500 SDS software (Applied Biosystems, Waltham, MA, USA). Actin beta (ACTB) and Glyceraldehyde 3-phosphate dehydrogenase (GAPDH) were used as reference genes. Both were considered suitable reference genes for gene expression normalization based on geNorm and/or Bestkeeper stability analysis. The gene-stability measures were performed using the RefFinder tool. Relative expression was calculated using the 2^−ΔΔCt method. All experiments were performed in triplicate and in three independent experiments.
(In general: Quantitative PCR measures a nucleic acid by following its amplification.)

Series [4] can be described thus: MTT viability assay in macrophage-like differentiated HL-60 cells. Format: cell-based, human. The settings on record: human, macrophage-like differentiated HL-60 cells (PMA), differentiated HL-60 cells, 48 h, MTT, mean ± SD. The method, then:
(§1) In order to test the specificity of the compounds as potential anti-tumor/cytotoxic agents with no collateral negative effects upon non-proliferative cells, the series of compounds were also assayed in an in vitro model of human macrophage-like cells derived from the same HL-60 cell line. To obtain these differentiated macrophage-like cells, HL-60 human leukemia cells growing at an exponential rate in suspension were exposed to a dose of 10 ng/mL of phorbol myristate acetate (PMA) (Sigma-Aldrich, Merck, Análisis Vínicos SL, Tomelloso, Spain) for 24 h in 96-well plates at a cell density of 0.2·10^6 HL-60 cells/well at 37 °C and 5% CO2. Cells were then incubated in culture media without PMA for another 24 h in the same culture conditions. After differentiation and resting periods, differentiated cells were treated for 48 h with compound solutions at different concentrations. Finally, MTT assays were performed as previously explained to measure cell viability. All experiments were performed in triplicate and in three independent experiments.

Series [5] relates to HL-60 differentiated cells. Described as above. In kind it is cell-based, human. As to the method: as §1
Setting [6] is: Homo sapiens, HL-60, higher dose (50 µM), 48 h, read-out: cell viability.

As for `OC[C@H]1O[C@@H](Oc2cc3c(O)cc(O)cc3[o+]c2-c2ccc(O)c(O)c2)[C@H](O)[C@@H](O)[C@@H]1O` [C3G, cyanidin-3-glucoside chloride], the cell viability entry in series [1] (10–50 µM doses, 24 h) is reported as “around 40%”; in series [1] (25 and 50 µM, 48 h and 72 h), “below 20%”. Moreover, the IC50 in series [1] (Homo sapiens, 48 h treatment) worked out at 7 ± 1 µM; in series [1] (Homo sapiens, 72 h treatment), 21.9 ± 0.3 µM. For the same compound, the “concentrations needed to inhibit the proliferative capacity of HL-60 cells” value in series [2] is reported as more than 100 µM. Further, the “expression levels of the NRF2-target genes HMOX, NQO1 and GSTA1 (in words)” value (shortened to “expression levels”) in series [3] is recorded as “markedly induce”. Also, the viability at 48 h, 10 µM in series [4] is 114 ± 24.4%. Moreover, in series [4], the viability at 48 h, 25 µM turned out to be 108 ± 7.4%. Further, the viability at 48 h, 50 µM in series [4] is 107 ± 12.8%.

As to `O=C(/C=C/c1ccc(O)c(O)c1)O[C@@H]1C[C@](O)(C(=O)O)C[C@@H](O)[C@H]1O` [CQA, Chlorogenic acid], the viability at 25 µM in series [1] (Homo sapiens, HL-60, 25 µM treatment, 48 and 72 h, read-out: cell viability) was less than 50%. Moreover, in series [1] (setting [6]), the viability at 50 µM amounted to 13%. In addition, the viability at 50 µM in series [1] (Homo sapiens, HL-60, higher dose (50 µM), 72 h, read-out: cell viability) came out at 11%. In series [1] (Homo sapiens, 48 h treatment), 17.4 ± 0.7 µM corresponded to half-maximal inhibition (IC50). In addition, inhibition in series [1] (Homo sapiens, 72 h treatment) was half-maximal at 28.9 ± 0.7 µM (IC50). Besides, the “expression levels” value in series [3] is on record as “markedly induce”. Moreover, in series [4], the viability at 48 h, 10 µM was 114 ± 19.2%; the viability at 48 h, 25 µM amounted to 114 ± 20.6%; the viability at 48 h, 50 µM was determined as 109 ± 11.8%.

On to `c1ccc2c(Cc3c[nH]c4ccccc34)c[nH]c2c1` [DIM, 3,3′-Diindolmethane], for which the viability at 50 µM in series [1] (setting [6]) is 25%. Also, the “cytotoxic effect (in words)” value in series [1] is listed as “mild but significant cytotoxic effect”. In series [1] (higher dose (50 µM), 48 h), the maximum cytotoxicity worked out at 75%. For the same compound, in series [4], the viability at 48 h, 10 µM turned out to be 102 ± 22.7%; the viability at 48 h, 25 µM was 118 ± 27.2%; the viability at 48 h, 50 µM is 105 ± 13.5%.

On to `O=S(=O)(O)O/N=C(/Cc1c[nH]c2ccccc12)S[C@@H]1O[C@H](CO)[C@@H](O)[C@H](O)[C@H]1O` [GBS, glucobrassicin], for which, in series [1], the “effect on HL-60 cell viability (in words)” value is reported as “did not show any effect”.

With `CSCCCCC(=NOS(=O)(=O)O)SC1OC(CO)C(O)C(O)C1O` (stereo not drawn) [GER, glucoerucin], in series [1], the “effect on HL-60 cell viability (in words)” value is “did not show any significant effects”.

In the case of `C[S+]([O-])CCCC/C(=N\OS(=O)(=O)O)S[C@@H]1O[C@H](CO)[C@@H](O)[C@H](O)[C@H]1O` (stereo partly drawn) [GRA, glucoraphanin], the “effect on HL-60 cell viability (in words)” value in series [1] was “did not show any significant effects”.

For `OCc1c[nH]c2ccccc12` [I3C, indole-3-carbinol], in series [1] (Homo sapiens, HL-60, maximum dose (50 µM), 24 h, read-out: cell viability), the viability at 50 µM came out at 38%. Further, in series [1], the “cytotoxic effect (in words)” value is reported as “mild but significant cytotoxic effect”. In series [4], the viability at 48 h, 10 µM stood at 93.6 ± 8%; the viability at 48 h, 25 µM came to 99.5 ± 5.4%; the viability at 48 h, 50 µM is 95.1 ± 10.4%.

As for `C[S+]([O-])CCCCN=C=S` (stereo not drawn) [SFN, sulforaphane], the cytotoxicity levels result in series [1] (25 µM and 50 µM, all time points (24, 48 and 72 h)) is listed as “above 95%”. This compound registered an IC50 in series [1] (Homo sapiens, HL-60, 48 h, 48 h treatment) of 6 µM. In addition, in series [1] (Homo sapiens, HL-60, 72 h, 72 h treatment), the midpoint of inhibition, the IC50, lay at 11.3 ± 0.5 µM. In addition, the viability at 10 µM in series [1] (Homo sapiens, HL-60, 10 µM dose, all time points (24, 48, 72 h)) is less than 50%. The midpoint of inhibition in series [1] (48 h treatment), the IC50, lay at 5.9 ± 0.3 µM. For the same compound, in series [3] (HL-60 cells), the “induction of the NRF2/KEAP1 signaling pathway (in words)” value is “most potent NRF2 activator”. Besides, the “expression levels” value in series [3] is given as “markedly induce”. For the same compound, in series [4], the viability at 48 h, 10 µM was 98.2 ± 12.1%; the viability at 48 h, 25 µM came out at 87.6 ± 6.8%; the viability at 48 h, 50 µM stood at 70 ± 17.5%. Moreover, in series [5] (10 µM), the “cytotoxicity in differentiated cells (in words)” value was “did not cause significant cytotoxicity”. The “cytotoxic effect in differentiated HL-60 cells (in words)” value in series [5] (concentrations higher than 10 µM, 48 h) is listed as “significant cytotoxic effect”.

Turning to `COc1cc(/C=C/C(=O)O)cc(OC)c1O` [SIA, sinapic acid], the “effect on HL-60 cell viability (in words)” value in series [1] is listed as “did not have any effect whatsoever”.

These data come from PMC9657236, “Anti-Leukemic Activity of Brassica-Derived Bioactive Compounds in HL-60 Myeloid Leukemia Cells” (International Journal of Molecular Sciences, 2022).
